Experimental data from PMC9098178, “SAR of Novel 3-Arylisoquinolinones: meta-Substitution on the Aryl Ring Dramatically Enhances Antiproliferative Activity through Binding to Microtubules” (Journal of Medicinal Chemistry, 2022).
Like-named read-outs stand apart in the source and are kept apart here. Blank lines part the entries; values can stand above or below the compound they belong to.

What was measured:
[1] = tested on: purified bovine tubulin; experiment: Cell-free tubulin polymerization assay; assay type: biochemical; conditions: 10 μM, compared to DMSO control
From the text: Experimentally, the direct interaction of 4 with tubulin was investigated in a cell-free system using a tubulin polymerization assay. […] In control samples, α- and β-tubulin subunits were able to heterodimerize and assemble into microtubules in a time-dependent manner as indicated by increasing absorbance values over time. […] This indicates the incidence of fast polymerization associated with the formation of a denser microtubule mass. […] It is worth mentioning that microtubule dynamics can be potently altered by microtubule-stabilizing or -destabilizing compounds at doses 10- to 100-fold lower than those required for increasing or decreasing the microtubule polymer mass.[31]
The cell-free tubulin polymerization experiment was performed using the Tubulin Polymerization Assay Kit according to the manufacturer’s instructions (Millipore, Cat# 17-10194). The light absorbed by microtubules, which were formed upon tubulin polymerization, is directly proportional to the polymer mass. […] Immediately, the plate was placed in a 37 °C-prewarmed plate reader (BMG LABTECH FLUOstar Omega, Germany) and the absorbance was measured at 1 min intervals for 60 min at a wavelength of 350 nm. The delta absorbance (ΔA) was calculated by subtracting the absorbance values of zero time from those of the subsequent time points and then plotted versus time.

[2] = tested on: panel of 59 cancer cell lines; experiment: NCI one-dose screen; assay type: cell-based; conditions: 10 µM, 48 h, SRB
Protocol: (§1) In light of this substantial change in activity between the meta and para compounds, a more comprehensive analysis of the antiproliferative activity was performed for the meta-/para-3-arylisoquinolinone pairs 2 and 3, 4, and 5, as well as 6. A panel of breast (MDA-MB-231), liver (HepG2, SNU423), lung (A549), and colon (HCT116) cancer cell lines were treated with the five 3-arylisoquinolinone analogs for 96 h followed by the SRB assay. The dose–response curves (including those for MCF-7) are presented in Figure S22, and their relevant IC50 values are listed in Table 1. […] The differential activity between meta- and para-3-arylisoquinolinones was reproduced in the National Cancer Institute (NCI) one-dose screen using a panel of 59 cancer cell lines (Figure S23).
Figure S23. NCI One-Dose Mean graphs for 3-arylisoquinolinones 4, 5 […]
In NCI one-dose screen, the 59 cell lines (classified into 9 groups) were exposed to 4, 5 and 7 at a single dose of 10 µM for 48 h followed by SRB assay. The one-dose data were reported as a mean graph of the growth percentage of treated cells, as relative to the cell number of both the no-drug control and the zero time (before adding the test agent). Values between 0 and 100 indicate growth inhibition, whereas values less than 0 indicate lethality. For instance, a value of 40 means 60% growth inhibition; 0, no growth throughout the experiment; -40, 40% lethality; and - 100, all cells are dead.1
A) One-dose mean graph for 3-arylisoquinolinone 4 (NSC number 795055)

[3] = tested on: MCF-7; experiment: SRB antiproliferative assay, MCF-7; assay type: cell-based, human
Protocol: Initially, the human breast cancer cell line MCF-7 was used in a prescreen analysis of the anticancer activity of 3-arylisoquinolinones. The cells were treated with serial concentrations of compounds 2–8 for 96 h prior to the assessment of proliferation using the sulforhodamine B (SRB) assay. For each compound, the concentration required to inhibit cell growth by 50% compared to that of the untreated control cells (IC50) was determined (Table 1).
(§2) All cell lines used in the study were human-derived and purchased from ATCC (Manassas, USA). Breast adenocarcinoma MCF-7 and MDA-MB-231 cell lines were cultured in DMEM. Hepatocellular carcinoma HepG2 and SNU423 cell lines were grown in MEME combined with 1% (v/v) nonessential amino acids and RPMI supplemented with 2 mM glutamine, respectively. Lung adenocarcinoma A549 and colorectal carcinoma HCT116 cells were grown in RPMI (+2 mM glutamine). All previous media were further supplemented with 10% heat-inactivated fetal bovine serum. The immortalized, normal liver THLE-3 cells were grown in BEGM (Lonza, Cat# CC-3170) onto precoated vessels according to ATCC’s instructions. Human umbilical vein endothelial cells (HUVECs) were cultured in EGM-2 (Lonza, Cat# CC-3162). All of the cells were maintained at 37 °C and 5% CO2 in a humidified incubator.
(§3) Screening of the antiproliferative activity of 3-arylisoquinolinones was performed using the SRB assay as previously described.[56] Exponentially growing HepG2, SNU423, MDA-MB-231, MCF-7, A549, HCT116, THLE-3, and HUVECs were seeded in 96-well plates at densities of 3000, 2000, 1500, 2500, 1000, 1000, 4000, and 4000 cells/well, respectively. These densities were experimentally selected so that the DMSO-treated cells (control) were approximately 80–90% confluent at the assay’s endpoint, and their optical density (OD) values fell within the assay’s linear range. After overnight incubation, the cells were treated with a range of concentrations of the respective compounds for 96 h, 24 h followed by 72 h compound-free incubation or 24 h (for HUVECs only). After treatment, cell monolayers were fixed with 10% (w/v) trichloroacetic acid for 1 h at 4 °C, washed, and dried. Then, the cells were exposed to 0.4% (w/v) SRB dye (prepared in 1% (v/v) acetic acid; Botium, Cat# 80100) for 15 min followed by several 1% acetic acid washing and then drying. Finally, the cellular protein-bound SRB was thoroughly dissolved in 10 mM Tris base, and the OD values were read at 510 nm using a plate reader (μQuant Microplate Spectrophotometer, Biotek, U.K.) coupled with Gen5 software (BioTek, U.K.). Compound-induced changes in cell growth were inferred from changes in OD values. Cell growth was calculated using the following formula: cell growth (%) = (ODtest/ODcontrol) × 100.

[4] = parameters: method as in PMID 21127197; conditions: after compound washout; cited from earlier work
[5] = tested on: SNU423; experiment: SRB antiproliferative assay, SNU423; assay type: cell-based, human
Protocol: as §1, §2
as §3, with “After overnight incubation, the cells were treated with a range of concentrations of the respective compounds for 96 h, 24 h followed by 72 h compound-free incubation or 24 h (for HUVECs only).” left out

[6] = tested on: HepG2; experiment: SRB antiproliferative assay, HepG2; assay type: cell-based, human
Protocol: as §1, §2, §3

[7] = tested on: MDA-MB-231; experiment: SRB antiproliferative assay, MDA-MB-231; assay type: cell-based, human
Protocol: as §1, §2, §3

[8] = tested on: HCT116; experiment: SRB antiproliferative assay, HCT116; assay type: cell-based, human
Protocol: as §1, §2, §3

[9] = tested on: THLE-3; experiment: SRB antiproliferative assay, normal liver cell line THLE-3; assay type: cell-based, human; conditions: 24 h +drug/72 h –drug treatment, read-out: mean IC50 ± SEM, THLE-3
From the text: In the preceding experiments, the cells were continuously exposed to the compounds prior to scoring for the antiproliferative/cytotoxic effects. […] The meta compounds were also examined for the presence of differential antiproliferative activity against cancer cells over the normal liver cell line THLE-3. […] Moreover, the sensitivity of the six cancer cell lines toward compounds 2, 4, and 6 was markedly greater than that of THLE-3 cells.
All cell lines used in the study were human-derived and purchased from ATCC (Manassas, USA). Breast adenocarcinoma MCF-7 and MDA-MB-231 cell lines were cultured in DMEM. Hepatocellular carcinoma HepG2 and SNU423 cell lines were grown in MEME combined with 1% (v/v) nonessential amino acids and RPMI supplemented with 2 mM glutamine, respectively. Lung adenocarcinoma A549 and colorectal carcinoma HCT116 cells were grown in RPMI (+2 mM glutamine). […]
Screening of the antiproliferative activity of 3-arylisoquinolinones was performed using the SRB assay as previously described.[56] […] Finally, the cellular protein-bound SRB was thoroughly dissolved in 10 mM Tris base, and the OD values were read at 510 nm using a plate reader (μQuant Microplate Spectrophotometer, Biotek, U.K.) coupled with Gen5 software (BioTek, U.K.). […] Cell growth was calculated using the following formula: cell growth (%) = (ODtest/ODcontrol) × 100.

[10] = tested on: HepG2 cells; experiment: Clonogenic assay; assay type: cell-based, human; conditions: 14 days; for colony formation: 0.5 or 1 μM
Protocol: HepG2 cells were treated with varying concentrations of 2–6 added once and kept for 14 days before counting colonies and calculating surviving fraction (Figure 2).
The ability of potential anticancer agents to prevent unlimited cell division and induce reproductive cell death was assessed using clonogenic assay as previously described.[57] In brief, HepG2 cells were seeded into six-well plates at a density of 1000 single cells/well and incubated for 10–12 h to adhere. The cells were then treated with DMSO (control) or a range of concentrations of 2–6 for 14 days. Afterward, the produced colonies were washed with phosphate-buffered saline (PBS), fixed with 70% ethanol for 20 min, and stained with 0.5% (w/v) methylene blue (prepared in 70% methanol). Following washing with water and drying, colonies (≥50 cells) were manually counted. The colony-forming efficiency (CFE) of cells was calculated by dividing the number of colonies formed by the number of cells seeded for each condition. The surviving fraction was determined by dividing the CFE of the treated cells by CFE of the control cells. A survival curve was generated by plotting the log of drug concentrations versus surviving fraction.

[11] = tested on: A549; experiment: SRB antiproliferative assay, A549; assay type: cell-based, human
Protocol: as §1, §2, §3

[12] = 96 h treatment, mean ± SEM, read-out: IC50 MCF-7 (prescreen)
[13] = Homo sapiens, MCF7, 96 h treatment, mean ± SEM, read-out: IC50 MCF-7 (prescreen)
[14] = 24 h +drug/72 h –drug treatment, read-out: mean IC50 ± SEM, SNU423
[15] = 96 h treatment, mean ± SEM, read-out: IC50 SNU423
[16] = 24 h +drug/72 h –drug treatment, read-out: mean IC50 ± SEM, HepG2
[17] = 96 h treatment, mean ± SEM, read-out: IC50 HepG2
[18] = 24 h +drug/72 h –drug treatment, read-out: mean IC50 ± SEM, MDA-MB-231
[19] = 96 h treatment, mean ± SEM, read-out: IC50 MDA-MB-231
[20] = 24 h +drug/72 h –drug treatment, read-out: mean IC50 ± SEM, HCT116
[21] = 96 h treatment, mean ± SEM, read-out: IC50 HCT116
[22] = 24 h +drug/72 h –drug treatment, read-out: mean IC50 ± SEM, A549
[23] = 96 h treatment, mean ± SEM, read-out: IC50 A549
[24] = 24 h +drug/72 h –drug treatment, read-out: mean IC50 ± SEM, MCF-7

Compound: CC(=O)O[C@H]1C(=O)[C@@]2(C)[C@H]([C@H](OC(=O)c3ccccc3)[C@]3(O)C[C@H](OC(=O)[C@H](O)[C@@H](NC(=O)c4ccccc4)c4ccccc4)C(C)=C1C3(C)C)[C@]1(OC(C)=O)CO[C@@H]1C[C@@H]2O [paclitaxel, reference compound]
effect on tubulin polymerization (polymerizing control) [1]: higher absorbance values briefly after the onset of the polymerization process

IC50 [3, 12]: > 50 µM
Compound: 7-Fluoro-3-(4-methoxyphenyl)isoquinolin-1(2H)-one [compound 7]
inhibition of growth in NCI one-dose screen [2]: less active

Compound: COc1cc2c(c(OC)c1OC)-c1ccc(OC)c(=O)cc1[C@@H](NC(C)=O)CC2 [colchicine]
reversibility of mitotic blockade [4]: irreversible

melting point: 294 to 296 °C
IC50 [3, 13]: > 50 µM
Compound: O=c1[nH]c(-c2ccc(F)cc2)cc2ccc(F)cc12 [compound 8]

IC50 [5, 14]: 0.58 ± 0.04 µM
IC50 [5, 15]: 0.41 ± 0.03 µM
IC50 [6, 16]: 2.33 ± 0.22 µM
IC50 [6, 17]: 3.12 ± 0.34 µM
IC50 [7, 18]: 0.19 ± 0.04 µM
IC50 [7, 19]: 0.17 ± 0.01 µM
IC50 [8, 20]: 0.2 ± 0.01 µM
IC50 [8, 21]: 0.22 ± 0.02 µM
IC50 [11, 22]: 0.83 ± 0.17 µM
IC50 [11, 23]: 0.37 ± 0.01 µM
IC50 [3, 24]: 1.43 ± 0.3 µM
IC50 [3, 12]: 0.75 ± 0.13 µM
Compound: COc1cccc(-c2cc3cc(F)ccc3c(=O)[nH]2)c1 [compound 2, 6-Fluoro-3-(3-methoxyphenyl)isoquinolin-1(2H)-one]
IC50 [9]: > 25 µM
colony formation [10]: No colonies were apparent

Compound: CC[C@]1(O)C[C@H]2CN(CCc3c([nH]c4ccccc34)[C@@](C(=O)OC)(c3cc4c(cc3OC)N(C=O)[C@H]3[C@@](O)(C(=O)OC)[C@H](OC(C)=O)[C@]5(CC)C=CCN6CC[C@]43[C@@H]65)C2)C1 [vincristine]
reversibility of mitotic blockade [4]: irreversible

Compound: CN[C@H]1CCc2cc(OC)c(OC)c(OC)c2-c2ccc(OC)c(=O)cc21 [colcemid]
reversibility of mitotic blockade [4]: highly reversible

Compound: COC(=O)Nc1nc2cc(C(=O)c3cccs3)ccc2[nH]1 [nocodazole]
reversibility of mitotic blockade [4]: highly reversible

Compound: COc1ccc(-c2cc3cc(F)ccc3c(=O)[nH]2)cc1 [compound 3, 6-Fluoro-3-(4-methoxyphenyl)isoquinolin-1(2H)-one]
IC50 ([5]; Homo sapiens, SNU-423, 96 h treatment, mean ± SEM, read-out: IC50 SNU423): > 50 µM
IC50 ([6]; Homo sapiens, HepG2, 96 h treatment, mean ± SEM, read-out: IC50 HepG2): > 50 µM
IC50 ([7]; Homo sapiens, MDA-MB-231, 96 h treatment, mean ± SEM, read-out: IC50 MDA-MB-231): > 50 µM
IC50 ([8]; Homo sapiens, HCT-116, 96 h treatment, mean ± SEM, read-out: IC50 HCT116): > 50 µM
surviving fraction ([10]; concentrations as high as 20 μM): 0.5
IC50 ([11]; Homo sapiens, A549, 96 h treatment, mean ± SEM, read-out: IC50 A549): > 50 µM
IC50 [3, 13]: > 50 µM

IC50 [5, 14]: 0.68 ± 0.09 µM
IC50 [5, 15]: 0.6 ± 0.06 µM
IC50 [6, 16]: 1.4 ± 0.06 µM
IC50 [6, 17]: 3.03 ± 0.61 µM
IC50 [7, 18]: 0.22 ± 0.02 µM
IC50 [7, 19]: 0.21 ± 0.05 µM
IC50 [8, 20]: 0.21 ± 0.01 µM
IC50 [8, 21]: 0.19 ± 0.01 µM
IC50 [11, 22]: 0.47 ± 0.03 µM
IC50 [11, 23]: 0.38 ± 0.02 µM
IC50 [3, 24]: 1.6 ± 0.4 µM
IC50 [3, 12]: 0.68 ± 0.13 µM
Compound: COc1cccc(-c2cc3ccc(F)cc3c(=O)[nH]2)c1 [compound 6]
IC50 [9]: > 25 µM
colony formation [10]: No colonies were apparent
